Like-named read-outs stand apart in the source and are kept apart here.
What was measured:
[1] = tested on: LPS-induced nitric oxide (NO) production in RAW 264.7 cells; experiment: Nitric oxide production in LPS-stimulated macrophages (Griess); assay type: cell-based, mouse; details: for IC50: Mus musculus, LPS-stimulated RAW264.7, nitrite 24 h after LPS
Method in brief: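 RAW 264.7 macrophages (2×10^5 cells/well) were pretreated with compound for 1 h and then stimulated with 100 ng/μL LPS for 24 h. NO was measured as nitrite in the medium by the Griess reaction. Viability was checked in parallel by MTT.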

[2] = tested on: A375-R PLX4032-resistant melanoma tumor; experiment: A375-R melanoma xenograft model in NOD/SCID mice; assay type: in vivo, mouse; details: 20 mg/kg i.p. alone
Method: A375 and A375-R melanoma cells (3×10^6) were injected subcutaneously to the flanks of the six weeks old NOD/SCID mice. One week after the inoculation, the mice were randomized into treated groups (n=8 per group) and the treatments were started. Body weight and tumor volume of the mice were recorded every three days using formula a×b^2×0.5, where a and b represented the larger and smaller tumor diameters.
To study whether or not DETD-35 could overcome acquired resistance to BRAF inhibitor, we generated A375 cell line resistant to PLX4032 (designated A375-R) as described above. We then conducted A375-R orthotopic xenograft study.

U937 lymphoma line = experiment: MTT cell viability assay, U937; assay type: cell-based; details: Homo sapiens, U-937, 24 h
Method: (§1) Normal or cancer cells (2×10^3 to 1×10^4 cells/well) were seeded in 96-well plate for overnight and treated with different compounds for 24 h to 72 h. Cells growth were determined by MTT-based colorimetric assays according to. Viability of the test cells treated with vehicle (0.5% DMSO) only was defined as 100% viable. Survival of cells after treatment with DETDs was calculated using the following formula: viable cell number (%)=OD570 (treated cell culture)/OD570 (vehicle control)×100.
(§2) Based on toxicity results of DET and DETDs on different breast cancer and melanoma cell lines, we selected DETD-6, -32, -35 and -39, under the consideration of structure activity relationship for evaluating their suppression effect against other cancer types of cell line with indicated tumor origin in Table 5. […] The cells were treated with compounds for 24 h and then subjected to MTT assays.

[3] = tested on: MCF-7 (ER+, Her2−) human breast cancer cells; experiment: MTT cell viability assay, MCF-7 cells; assay type: cell-based
Method in brief: (§3)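 Viability is scored colorimetrically by MTT after cells, plated at 2×10^3 to 1×10^4 per well the night before, receive compounds for 24 h to 72 h; 0.5% DMSO-treated wells define 100%.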

[4] = tested on: SK-N-MC neuroepithelioma line; experiment: MTT cell viability assay, SK-N-MC; assay type: cell-based; details: Homo sapiens, 24 h
Method: as §1, §2

[5] = tested on: MDA-MB-231 (ER−, PR−, Her2−) human breast cancer cells; experiment: MTT cell viability assay, MDA-MB-231 cells; assay type: cell-based; details: for IC50: Homo sapiens
Method in brief: as §3

[6] = tested on: HCT-116 colon cancer cell line; experiment: MTT cell viability assay, HCT-116; assay type: cell-based; details: Homo sapiens, 24 h
Method: as §1, §2

MDA-MB-231 cell motility = experiment: Time-lapse microscope analysis of cell motility; assay type: cell-based, human; details: 12 h, control 186
Method: A 12 well cell culture plate was coated with 25 μg/mL fibronectin for 1 h and then seeded with 5×10^4 MDA-MB-231 cells in DMEM containing 10% serum. Twelve hours after seeding, time-lapse microscopy experiments were performed on an Inverted Confocal Microscope (LSM 510 META) equipped with an environmental chamber with phase-contrast optics (images taken every 30 min). Using the object-tracking application of Metamorph software (Molecular Devices), an average of 12 subsequent cell centroid displacements/30 min between two consecutive images were evaluated as cell velocities of migration. In total, cell trajectories were recorded for 24 h. These assays were made in treatments with vehicle (DMSO, 0.05%), DET (2.5, 4 and 10 μM), and DETD-35 (1.25, 2.5, 4 μM) added at the beginning of the time-lapse imaging/video taping.

[7] = tested on: NES-SA uterus cancer cell line; experiment: MTT cell viability assay, NES-SA; assay type: cell-based; details: 24 h
Method: as §1, §2

MDA-MB-231 cells = experiment: Combination with gluthathione biosynthesis blockers (BSO, sulfasalazine), MTT; details: for cell viability after pretreatment with BSO or sulfasalazine: 30 h pretreatment, then DET 12 μM or DETD-35 3 μM for 24 h; for combination effect with BSO: BSO at 0.5 μM, 3 μM, and above; for combination effect with sulfasalazine: sulfasalazine at 25 μM, 62 μM, and above
Method: Briefly, cells (5×10^3 cells/well) were seeded in 96-well plates and treated with BSO at concentrations 100 μM, 45 μM, 18 μM, 7.2 μM, 2.8 μM, 1.15 μM, 461 nM, 184 nM, 74 nM and 29 nM, and sulfasalazine at concentrations 62.75 μM, 25.10 μM, 10 μM, 4 μM, 1.6 μM, 642 nM, 257 nM, 102 nM, 41 nM and 16.4 nM for 30 h, and then 12 μM DET or 3 μM DETD-35 were added in the cultural medium to treat the cells for another 24 h. Cell proliferation was measured by MIT assay.

[8] = tested on: DMBA/TPA-induced skin papillomas accelerated by PLX4032; details: DMBA/TPA + PLX4032 20 mg/kg, with DET or DETD-35 10 mg/kg i.p. twice per week
Method: Dorsal skin of six weeks old female FVB/N mice were shaved and treated with topical application of DMBA (25 μg in 100 μL acetone). One week after DMBA treatment, the same skin area were treated topically twice weekly with 12-O-tetradecanoylphorbol-13-acetate (TPA) (4 μg in 100 μL acetone). The area was regularly shaved and tumor formation was assessed twice weekly, and tumors were defined as raised lesions of a minimum diameter of 1 mm.

[9] = tested on: PC6 lung cancer cell line; experiment: MTT cell viability assay, PC6; assay type: cell-based; details: 24 h
Method: as §1, §2

[10] = tested on: A498 kidney cancer cell line; experiment: MTT cell viability assay, A498; assay type: cell-based; details: Homo sapiens, 24 h
Method: as §1, §2

B16-F10 (NRAS mutation) = experiment: MTT cell viability assay, B16-F10 melanoma; assay type: cell-based; details: Mus musculus, B16-F10, 24 h
Method in brief: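 Viability is determined colorimetrically with MTT after a 24 h to 72 h compound treatment. Vehicle wells containing 0.5% DMSO define 100% viability, and treated OD570 values are expressed relative to them.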

[11] = MCF7, 24 h, read-out: IC50 on cell viability, MCF-7 (ER+, Her2−)
[12] = MCF7, Table 5, 24 h, read-out: IC50 viability MCF-7 (Breast)
[13] = MDA-MB-231, 24 h, read-out: IC50 on cell viability, MDA-MB-231 (ER−, PR−, Her2−)
[14] = MDA-MB-231, Table 5, 24 h, read-out: IC50 viability MDA-MB-231 (Breast)
[15] = 24 h, read-out: IC50 on cell viability, B16-F10 (NRAS mutation)
[16] = Table 5, 24 h, read-out: IC50 viability B16-F10 (mouse) (Skin)

| SMILES | IC50 [1] [µM] | reduction of tumor mass [2] [%] | IC50 (U937 lymphoma line) [µM] | IC50 [3, 11] [µM] | IC50 [3, 12] [µM] | IC50 [4] [µM] | IC50 [5, 13] [µM] | IC50 [5, 14] [µM] | IC50 [6] [µM] | migration distance (MDA-MB-231 cell motility; 2.5 μM) [μm] | migration distance (MDA-MB-231 cell motility; 4 μM) [μm] | IC50 [7] [µM] | cell viability after pretreatment with BSO or sulfasalazine (MDA-MB-231 cells) | combination effect with BSO (MDA-MB-231 cells) | combination effect with sulfasalazine (MDA-MB-231 cells) | papillomas size in average [8] [mm^3] | total papillomas number [8] | IC50 [9] [µM] | IC50 [10] [µM] | IC50 (B16-F10 (NRAS mutation); [15]) [µM] | other results |
| --- | --- | --- | --- | --- | --- | --- | --- | --- | --- | --- | --- | --- | --- | --- | --- | --- | --- | --- | --- | --- | --- |
| C=C1C(=O)O[C@H]2CC3=C[C@@H](C/C(C)=C/[C@@H](OC(=O)Cc4cccc5ccccc45)[C@H]12)OC3=O [DETD-35] | 1.5 | 46.9 | 0.18 | 3.2 | 3.9 | 0.26 | 3.5 | 3.5 | 0.14 | 23 | 3 | 0.34 | 1% or undetectable | synergistic effects | synergistic effects | 8.9 | 4.8 | 0.34 | 0.79 | 2.7 | fold decrease in IC50 of NO production vs DET [1]: 2 fold; IC60 on MDA-MB-231 cells ([5]; 24 h): 3.32 µM; migration distance (MDA-MB-231 cell motility; 1.25 μM): 70 μm; viability at 3 µM (MDA-MB-231 cells; Homo sapiens, MDA-MB-231, 24 h, read-out: cell viability, compound alone): ~90%; IC50 (B16-F10 (NRAS mutation); [16]): 2.7 µM |
| C=C(C)C(=O)O[C@H]1CC2=C[C@@H](C/C(C)=C/[C@H]3OC(=O)C(=C)[C@H]13)OC2=O [DET, deoxyelephantopin, reference compound] | 2.9 | 32 | 0.48 | 5 | 5 | 0.51 | 14 | 14 | 0.28 | 144 | 15 | 0.9 | 1% or undetectable | synergistic effects | synergistic effects | 26.3 | 11.7 | 0.4 | 2.82 | ~6 | migration distance (MDA-MB-231 cell motility; 10 μM): 9 μm; cell viability, compound alone (MDA-MB-231 cells; DET 12 μM, DETD-35 3 μM, 24 h): around 70%; IC50 (B16-F10 (NRAS mutation); [16]): 6 µM |
